Experiment: osmotic coefficient (dimensionless); mn = molality of the nth substance listed, in mol/kg
Conditions: 298.15 K, Liquid, isopiestic method

O=P([O-])([O-])[O-].[K+].[K+].[K+] [tripotassium phosphate] + O
Conditions | osmotic coefficient
m1 = 0.4308 | 0.694
m1 = 0.5142 | 0.698
m1 = 0.6347 | 0.705
m1 = 0.7575 | 0.708
m1 = 0.8132 | 0.716
m1 = 1.002 | 0.744
m1 = 1.012 | 0.745
m1 = 1.241 | 0.778
m1 = 1.695 | 0.866
m1 = 1.83 | 0.893

CCn1cc[n+](C)c1.[Br-] [1-ethyl-3-methylimidazolium bromide] + O
Conditions | osmotic coefficient
m1 = 0.5514 | 0.811
m1 = 0.6588 | 0.801
m1 = 0.6883 | 0.799
m1 = 0.7764 | 0.795
m1 = 0.9367 | 0.787
m1 = 1.04 | 0.786
m1 = 1.943 | 0.763
m1 = 2.308 | 0.757
m1 = 2.542 | 0.759
m1 = 3.189 | 0.763
m1 = 4.359 | 0.786
m1 = 5.41 | 0.821
m1 = 7.17 | 0.883

O=P([O-])([O-])O.[K+].[K+] [dipotassium hydrogen phosphate] + O
Conditions | osmotic coefficient
m1 = 0.6496 | 0.711
m1 = 0.7592 | 0.704
m1 = 1.112 | 0.69
m1 = 1.251 | 0.69
m1 = 1.604 | 0.689
m1 = 1.712 | 0.694
m1 = 1.965 | 0.696
m1 = 2.163 | 0.709

O=P([O-])(O)O.[K+] [monopotassium phosphate] + O
Conditions | osmotic coefficient
m1 = 0.6269 | 0.8
m1 = 0.9843 | 0.744
m1 = 1.113 | 0.731
m1 = 1.228 | 0.717
m1 = 1.27 | 0.715
m1 = 1.508 | 0.696
m1 = 1.707 | 0.68
